SMILES strings stand for the structures.

In assay [1] the target is Tyrosine-protein kinase ABL1 (Homo sapiens, UniProt P00519). Description: Inhibition of recombinant human ABL1 expressed in insect cells assessed as remaining activity at 10 uM preincubated for 15 mins followed by poly(Glu:Tyr) substrate addition for 30 mins in presence of [gamma-32P]ATP by […] assay. On the technique in general: In TR-FRET formats the signal depends on donor and acceptor labels being close together.

For assay [2], the target named is Mast/stem cell growth factor receptor Kit (Homo sapiens) (UniProt P10721). Description: Inhibition of recombinant human c-Kit expressed in insect High-5 cells assessed as remaining activity at 10 uM preincubated for 15 mins followed by poly(Glu:Tyr) substrate addition for 30 mins in presence of [gamma-32P]ATP by […] assay. The conditions noted are these: BTI-TN-5B1-4.
Sequence of Mast/stem cell growth factor receptor Kit (Homo sapiens) (P10721 whole entry): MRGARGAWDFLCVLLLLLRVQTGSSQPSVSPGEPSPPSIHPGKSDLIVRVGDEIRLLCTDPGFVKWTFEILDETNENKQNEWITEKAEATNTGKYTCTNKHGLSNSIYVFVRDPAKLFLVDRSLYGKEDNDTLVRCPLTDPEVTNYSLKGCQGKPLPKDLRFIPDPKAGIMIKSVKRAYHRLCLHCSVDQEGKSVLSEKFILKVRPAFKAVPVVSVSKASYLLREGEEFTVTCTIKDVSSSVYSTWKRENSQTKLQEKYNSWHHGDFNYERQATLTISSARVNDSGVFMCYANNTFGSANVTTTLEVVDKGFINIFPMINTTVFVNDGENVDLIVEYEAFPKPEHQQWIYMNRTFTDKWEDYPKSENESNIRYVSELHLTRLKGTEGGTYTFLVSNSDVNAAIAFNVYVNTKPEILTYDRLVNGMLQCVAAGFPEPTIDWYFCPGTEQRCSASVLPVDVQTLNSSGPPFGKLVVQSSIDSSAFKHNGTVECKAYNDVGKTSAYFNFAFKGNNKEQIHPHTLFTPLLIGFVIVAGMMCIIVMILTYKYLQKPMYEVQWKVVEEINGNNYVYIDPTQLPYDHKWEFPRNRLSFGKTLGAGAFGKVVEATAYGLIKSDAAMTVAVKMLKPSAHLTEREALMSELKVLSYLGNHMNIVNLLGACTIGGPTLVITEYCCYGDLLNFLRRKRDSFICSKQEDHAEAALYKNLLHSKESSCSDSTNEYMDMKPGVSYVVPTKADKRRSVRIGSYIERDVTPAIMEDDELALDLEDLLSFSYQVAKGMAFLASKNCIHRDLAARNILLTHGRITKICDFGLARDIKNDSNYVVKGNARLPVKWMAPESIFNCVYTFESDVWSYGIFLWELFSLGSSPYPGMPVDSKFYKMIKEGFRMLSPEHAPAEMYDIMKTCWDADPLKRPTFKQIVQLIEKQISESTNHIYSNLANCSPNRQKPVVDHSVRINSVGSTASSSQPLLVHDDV

For assay [3], the target named is Tyrosine-protein kinase Blk (Homo sapiens) (UniProt P51451). Description: Inhibition of BLK (unknown origin) assessed as remaining activity at 10 uM preincubated for 15 mins followed by substrate addition for 30 mins in presence of [gamma-32P]ATP by […] assay.
Sequence of Tyrosine-protein kinase Blk (Homo sapiens) (P51451 2-505 limits assumed): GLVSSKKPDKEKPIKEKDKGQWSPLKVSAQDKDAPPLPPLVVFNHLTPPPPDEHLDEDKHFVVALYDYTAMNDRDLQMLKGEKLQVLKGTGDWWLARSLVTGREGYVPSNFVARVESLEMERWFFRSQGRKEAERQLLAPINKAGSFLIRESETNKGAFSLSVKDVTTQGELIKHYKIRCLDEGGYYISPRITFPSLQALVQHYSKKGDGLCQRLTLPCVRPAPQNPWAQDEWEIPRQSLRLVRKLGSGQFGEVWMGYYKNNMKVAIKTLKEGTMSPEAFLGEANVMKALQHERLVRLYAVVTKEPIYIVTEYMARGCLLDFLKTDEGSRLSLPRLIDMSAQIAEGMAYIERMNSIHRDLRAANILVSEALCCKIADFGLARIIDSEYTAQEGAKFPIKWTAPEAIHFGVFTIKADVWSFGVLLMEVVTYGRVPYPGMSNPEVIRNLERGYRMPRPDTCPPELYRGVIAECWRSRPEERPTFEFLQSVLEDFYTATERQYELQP
In assay [4] the target is Non-receptor tyrosine-protein kinase TYK2 (Homo sapiens) (UniProt P29597). Description: Inhibition of human TYK2 assessed as remaining activity at 10 uM in presence of [gamma-32P]ATP by […] assay.
Sequence of Non-receptor tyrosine-protein kinase TYK2 (Homo sapiens) (P29597 whole entry): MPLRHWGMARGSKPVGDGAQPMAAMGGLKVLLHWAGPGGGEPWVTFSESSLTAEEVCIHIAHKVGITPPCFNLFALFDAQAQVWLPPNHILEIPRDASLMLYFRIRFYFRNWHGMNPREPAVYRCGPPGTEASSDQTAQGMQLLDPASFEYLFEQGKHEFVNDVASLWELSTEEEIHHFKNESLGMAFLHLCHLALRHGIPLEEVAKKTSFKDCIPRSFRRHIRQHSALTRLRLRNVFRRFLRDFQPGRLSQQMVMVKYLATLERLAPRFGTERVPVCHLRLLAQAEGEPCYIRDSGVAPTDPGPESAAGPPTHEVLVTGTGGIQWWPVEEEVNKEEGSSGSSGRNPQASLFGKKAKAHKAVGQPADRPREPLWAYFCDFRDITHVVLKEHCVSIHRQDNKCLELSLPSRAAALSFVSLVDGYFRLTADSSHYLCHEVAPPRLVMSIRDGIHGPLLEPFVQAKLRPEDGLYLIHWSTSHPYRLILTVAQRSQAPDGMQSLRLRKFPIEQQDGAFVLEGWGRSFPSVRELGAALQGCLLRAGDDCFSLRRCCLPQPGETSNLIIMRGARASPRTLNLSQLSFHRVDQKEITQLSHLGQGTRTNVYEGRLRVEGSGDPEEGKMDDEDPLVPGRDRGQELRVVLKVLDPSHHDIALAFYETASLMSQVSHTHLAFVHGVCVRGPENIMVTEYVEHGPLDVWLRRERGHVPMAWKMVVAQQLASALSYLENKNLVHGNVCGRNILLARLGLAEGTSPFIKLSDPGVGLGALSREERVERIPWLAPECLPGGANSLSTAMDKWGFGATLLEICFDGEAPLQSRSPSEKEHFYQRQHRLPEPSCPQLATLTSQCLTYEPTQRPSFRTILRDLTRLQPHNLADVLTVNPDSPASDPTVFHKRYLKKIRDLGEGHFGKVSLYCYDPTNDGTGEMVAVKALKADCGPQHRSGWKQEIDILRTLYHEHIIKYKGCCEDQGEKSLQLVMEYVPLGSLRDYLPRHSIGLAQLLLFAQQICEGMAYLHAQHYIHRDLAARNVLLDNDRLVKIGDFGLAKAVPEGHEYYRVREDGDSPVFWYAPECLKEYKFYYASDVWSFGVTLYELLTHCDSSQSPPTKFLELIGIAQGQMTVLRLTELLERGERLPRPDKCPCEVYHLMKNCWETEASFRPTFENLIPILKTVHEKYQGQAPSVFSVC

Sequence of Tyrosine-protein kinase ABL1 (P00519 whole entry): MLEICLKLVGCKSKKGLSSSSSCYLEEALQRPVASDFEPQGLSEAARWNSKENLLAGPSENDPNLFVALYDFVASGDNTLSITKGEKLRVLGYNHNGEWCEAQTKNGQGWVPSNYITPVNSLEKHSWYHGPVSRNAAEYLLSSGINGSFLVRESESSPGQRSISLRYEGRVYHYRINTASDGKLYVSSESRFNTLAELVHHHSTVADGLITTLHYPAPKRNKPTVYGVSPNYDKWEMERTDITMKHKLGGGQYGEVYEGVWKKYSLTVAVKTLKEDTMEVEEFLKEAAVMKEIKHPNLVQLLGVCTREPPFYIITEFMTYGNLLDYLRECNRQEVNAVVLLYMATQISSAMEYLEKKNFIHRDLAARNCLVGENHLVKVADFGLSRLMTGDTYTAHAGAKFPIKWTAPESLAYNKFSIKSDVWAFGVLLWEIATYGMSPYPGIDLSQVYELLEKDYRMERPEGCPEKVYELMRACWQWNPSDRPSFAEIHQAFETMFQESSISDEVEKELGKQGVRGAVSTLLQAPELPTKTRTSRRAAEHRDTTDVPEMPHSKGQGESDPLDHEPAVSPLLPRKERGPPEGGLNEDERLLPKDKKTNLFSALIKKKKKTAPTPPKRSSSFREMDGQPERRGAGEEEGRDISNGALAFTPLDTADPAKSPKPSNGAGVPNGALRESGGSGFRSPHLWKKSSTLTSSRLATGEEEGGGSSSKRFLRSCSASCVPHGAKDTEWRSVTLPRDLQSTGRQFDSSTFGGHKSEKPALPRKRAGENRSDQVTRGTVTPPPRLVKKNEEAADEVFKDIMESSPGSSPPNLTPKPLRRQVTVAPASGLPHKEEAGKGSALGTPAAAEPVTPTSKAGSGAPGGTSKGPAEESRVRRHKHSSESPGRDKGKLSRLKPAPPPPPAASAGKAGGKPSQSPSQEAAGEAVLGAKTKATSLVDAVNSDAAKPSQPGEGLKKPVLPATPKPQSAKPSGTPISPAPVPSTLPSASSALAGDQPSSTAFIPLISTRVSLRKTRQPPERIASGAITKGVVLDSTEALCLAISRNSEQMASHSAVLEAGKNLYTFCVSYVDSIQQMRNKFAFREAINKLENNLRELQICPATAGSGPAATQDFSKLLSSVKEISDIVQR

In the case of `CNCCOc1ccc(-c2sc3nc(-c4cccs4)nc(NN4C(=O)C=C(C)C4=O)c3c2C)cc1.Cl`, the Activity was determined as 11% in assay [1], 75% in assay [2], 35% in assay [3] and 67% in assay [4].

Values taken from ChEMBL document CHEMBL3856191, “Structural modifications at the 6-position of thieno[2,3-d]pyrimidines and their effects on potency at FLT3 for treatment of acute myeloid leukemia” (Eur J Med Chem, 2016).
